Data published in patent publication US10851084B2, “Piperazine derivatives as TRPML modulators” (CalyGene Biotechnology, Inc., priority 2016, dated 2020).

How the values were obtained:
TFEB = TFEB nuclear translocation assay; type: cell-based; conditions: HEK293 cells stably expressing GFP-TFEB; dose-dependent, FIG. 2
Description: TFEB is a transcription factor and master regulator of lysosome biogenesis and autophagy. TFEB activation is shown to induce cellular clearance in a variety of LSDs and common neurodegenerative diseases.
Intracellular TFEB localization is determined either by immunofluorescence in Hela cells or by fluorescent microscopy in Hela cells stably expressing TFEB-GFP. Detailed procedures are as follows.
Cells grown on cover slips were treated with TRPML1 agonist(s) or antagonist(s) for indicated time period and then fixed with 4% paraformaldehyde for 15 minutes at room temperature. For immunofluorescent detection of endogenous TFEB, cells were permeabilized with 0.3% Triton X-100, blocked with 1% bovine serum albumin (BSA) in phosphate buffered saline (PBS) and then immunostained with anti-TFEB antibody (1:200; Cell Signaling Technology) at 4° C. for overnight. The stained cells were then incubated with secondary antibodies conjugated to Alexa Fluor 568 or 488 (ThermoFisher) for 1 h, then 4′,6-diamidino-2-phenylindole (DAPI) for 15 minutes (to stain the cell nucleus) and mounted on glass slides with Fluoromount-G (Southern Biotech) for observation. […]
Average ratios of nuclear versus cytosolic TFEB fluorescence intensity (>50 randomly-selected cells per experiment) were determined with ImageJ software (NIH).

HaCat cells = assay: UV treatment and ROS staining; type: cell-based, human; conditions: 600 J/m^2 UV (254 nm), H2DCFDA, FIG. 3
Description: HaCat cells (a human keratinocyte cell line) at a confluency of around 50% were incubated with 20 µM H2DCFDA (Sigma) in the culture media without FBS at 37° C. for 30 min, and then washed twice with phosphate buffered saline (PBS, pH 7.4) before being exposed to UV. A CL-1000 UV Crosslinker (UVP) is used to shed 600 J/m^2 of UV light (254 nm) on the HaCat cells in all experiments. Fluorescent images were obtained right after UV exposure, via an Olympus IX73 microscopy (Olympus) and Metamorph software (Molecular Devices).

ML1-4A = conditions: HEK293 cells stably or transiently expressing ML1-4A; cited from earlier work
[1] = tested on: six other related channels; conditions: cited from earlier work
TRPMLs = conditions: cited from earlier work
[2] = biological target: T1, endogenous whole-endolysosome TRPML-like current (IML-L) (Homo sapiens, UniProt Q9GZU1); conditions: wild-type (WT; ML1+/+) human fibroblasts; cited from earlier work
T1 construct: host or cells: endogenous in human fibroblasts (WT and ML4); also CHO, Cos-1, HEK293, skeletal muscle, pancreatic β and macrophage cells

[3] = tested on: endogenous whole-endolysosome TRPML-like current (IML-L); conditions: cited from earlier work
TRPML3 = biological target: T2, TRPML3 (Homo sapiens, UniProt Q8TDD5); conditions: cited from earlier work
T2 sequence (Q8TDD5 1-553): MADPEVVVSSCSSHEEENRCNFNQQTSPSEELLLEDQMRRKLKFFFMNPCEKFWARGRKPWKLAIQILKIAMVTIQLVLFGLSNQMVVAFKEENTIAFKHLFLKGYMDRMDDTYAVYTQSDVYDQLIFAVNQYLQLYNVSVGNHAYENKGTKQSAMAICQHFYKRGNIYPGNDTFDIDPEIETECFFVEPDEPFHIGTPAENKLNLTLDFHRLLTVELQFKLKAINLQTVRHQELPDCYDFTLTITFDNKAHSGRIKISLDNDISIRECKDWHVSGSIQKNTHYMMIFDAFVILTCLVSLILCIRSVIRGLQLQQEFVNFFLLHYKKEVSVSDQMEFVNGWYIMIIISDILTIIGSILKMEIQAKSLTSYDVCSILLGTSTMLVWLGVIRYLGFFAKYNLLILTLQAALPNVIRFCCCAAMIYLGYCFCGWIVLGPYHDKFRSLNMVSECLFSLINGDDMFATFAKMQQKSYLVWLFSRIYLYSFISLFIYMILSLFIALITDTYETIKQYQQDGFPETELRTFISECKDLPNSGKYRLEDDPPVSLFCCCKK

TRPML1 = conditions: cited from earlier work
TRPML2 = biological target: T3, TRPML2 (Homo sapiens, UniProt Q8IZK6); conditions: cited from earlier work
T3 sequence (Q8IZK6 1-566): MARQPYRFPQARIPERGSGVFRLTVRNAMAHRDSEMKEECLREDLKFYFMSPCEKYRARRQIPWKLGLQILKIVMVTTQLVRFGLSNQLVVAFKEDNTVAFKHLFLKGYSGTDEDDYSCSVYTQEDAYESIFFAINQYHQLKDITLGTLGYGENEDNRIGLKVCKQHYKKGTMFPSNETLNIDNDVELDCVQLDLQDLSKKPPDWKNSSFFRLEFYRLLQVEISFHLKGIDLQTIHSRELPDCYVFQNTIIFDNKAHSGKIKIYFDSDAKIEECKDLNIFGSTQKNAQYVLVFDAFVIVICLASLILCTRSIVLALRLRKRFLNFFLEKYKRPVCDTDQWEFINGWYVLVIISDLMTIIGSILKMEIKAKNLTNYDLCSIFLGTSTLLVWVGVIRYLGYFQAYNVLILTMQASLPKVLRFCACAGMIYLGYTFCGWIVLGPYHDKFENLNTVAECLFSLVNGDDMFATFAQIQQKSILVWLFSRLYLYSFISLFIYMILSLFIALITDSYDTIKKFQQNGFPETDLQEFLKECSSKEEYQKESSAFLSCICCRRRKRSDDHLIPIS

T1 sequence (Q9GZU1 whole entry): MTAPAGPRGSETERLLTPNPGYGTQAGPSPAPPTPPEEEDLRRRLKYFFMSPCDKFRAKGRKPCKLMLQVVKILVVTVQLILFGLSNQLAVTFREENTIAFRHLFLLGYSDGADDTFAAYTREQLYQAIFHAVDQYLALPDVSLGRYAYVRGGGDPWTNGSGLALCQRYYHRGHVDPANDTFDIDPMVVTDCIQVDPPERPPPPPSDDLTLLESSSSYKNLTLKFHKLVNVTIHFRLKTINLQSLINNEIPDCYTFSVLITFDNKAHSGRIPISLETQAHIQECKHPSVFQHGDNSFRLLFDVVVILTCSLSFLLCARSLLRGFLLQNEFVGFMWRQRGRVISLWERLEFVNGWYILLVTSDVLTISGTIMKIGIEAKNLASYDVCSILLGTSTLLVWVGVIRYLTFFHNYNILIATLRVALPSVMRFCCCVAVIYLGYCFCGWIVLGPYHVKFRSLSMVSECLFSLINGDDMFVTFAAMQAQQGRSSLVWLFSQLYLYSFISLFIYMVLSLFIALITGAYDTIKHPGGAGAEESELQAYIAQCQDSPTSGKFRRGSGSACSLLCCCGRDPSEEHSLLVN

## CN(C)S(=O)(=O)c1ccc(S(=O)(=O)Nc2ccccc2N2CCN(c3ccc(Cl)cc3F)CC2)cc1 [Example 8, N1-[2-[4-(4-Chloro-2-fluorophenyl)-1-piperazinyl]phenyl]-N4,N4-dimethylbenzene-1,4-disulfonamide]
TFEB
  TFEB-nuclear translocation (nuclear to cytosol ratio): sufficient to induce TFEB-nuclear translocation
HaCat cells
  UV induced ROS: significantly reduced

## CC1CC(C)(C)N(C(=O)CN2C(=O)c3ccccc3C2=O)c2ccccc21 (stereo not shown) [ML-SA1]
ML1-4A
  [Ca2+]cyt increases: significant
[1]
  activation of six other related channels: not
TRPMLs
  concentration needed to effectively activate TRPMLs: ~10 µM
[2]
  activation of whole-endolysosome IML-L: activated
[3]; ML4 (ML1−/−) human fibroblasts
  activation of whole-endolysosome IML-L: not
[3]; all mammalian cell types investigated (CHO, Cos-1, HEK293, skeletal muscle, pancreatic β, macrophage cells)
  activation of endogenous whole-endolysosome IML-L: activated
TRPML3
  activation of whole-cell ITRPML3: activated
TRPML1; ML-SA1 10 μM
  activation of whole-endolysosome IML1 compared with PI(3,5)P2 (1 μM): comparable
TRPML1; whole-cell
  activation of whole-cell IML1-4A: robustly activated
TRPML1; whole-endolysosome
  activation of whole-endolysosome IML1: robustly activated
TRPML2
  activation of whole-cell ITRPML2: activated
